Assays:
Assay in all cases: CTG-3D luminescence at 96 h relative to day-0 seeding control (ratio to day 0); higher = more growth / less cytotoxicity
HCI-002 = system: HCI-002 (organoid from a triple-negative breast cancer xenograft)
Procedure: (§1)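 PDxO 3D drug screen (set 2), 8-point dose, 96 h; CTG-3D luminescence normalised to day-0 seeding control (mean of 4 wells each).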

HCI-016 = system: HCI-016 (organoid from a triple-negative breast cancer xenograft)
Procedure: as §1

HCI-017.E2 = system: HCI-017.E2 (organoid from an ER-positive breast cancer xenograft)
Procedure: as §1

HCI-019 = system: HCI-019 (organoid from a triple-negative breast cancer xenograft)
Procedure: as §1

HCI-023 = system: HCI-023 (organoid from a triple-negative breast cancer xenograft)
Procedure: as §1

HCI-024 = system: HCI-024 (organoid from a breast cancer xenograft)
Procedure: as §1

CC/C(=C(\c1ccc(O)cc1)c1ccc(OCCN(C)C)cc1)c1ccccc1 [4-hydroxytamoxifen]
CTG-3D luminescence at 96 h
Conditions	12.5 pM	0.00025 µM	0.005 µM	0.1 µM	1 µM	10 µM	100 µM	625 fM
HCI-002, days in culture: 127	2.42	2.73	2.8	2.99	2.6	2.18	0.0155	2.75
HCI-002, days in culture: 155	4.99	5.16	5.23	5.86	4.71	4.14	0.0228	4.09
HCI-002, days in culture: 168	3.07	2.97	4.33	2.96	3.6	0.901	0.00411	4.11
HCI-016, days in culture: 305	2.77	4.59	2.65	4.18	2.47	1.67	0.0261	4.99
HCI-016, days in culture: 327	0.944	0.968	2.39	2.26	1.5	1.58	0.0115	1.27
HCI-016, days in culture: 341	2.5	1.22	2.22	1.54	1.41	1.48	0.00227	2.1
HCI-016, days in culture: 397	1.82	2.24	1.56	1.83	1.91	2.17	0.0134	2
HCI-017.E2, days in culture: 85	2.08	1.78	1.81	2.09	1.49	1.08	0.0372	2.06
HCI-019, days in culture: 173	1.97	1.2	1.04	1.81	1.85	0.914	0.0117	1.34
HCI-019, days in culture: 194	1.24	0.815	2.23	0.96	2.13	0.944	0.00421	2.45
HCI-019, days in culture: 215	2.34	1.56	1.23	1.28	1.14	0.473	0.00476	1.5
HCI-023, days in culture: 223	2.56	1.54	1.73	1.73	1.16	1.64	0.0104	2.1
HCI-023, days in culture: 238	1.29	1.34	1.35	1.29	1.4	1.46	0.00895	1.43
HCI-023, days in culture: 252	2.34	1.72	1.66	1.88	1.73	1.63	0.00241	1.66
HCI-024, days in culture: 202	1.48	1.18	1.56	1.67	0.953	1.09	0.00631	1.74
HCI-024, days in culture: 231	1.05	1.07	1.18	0.978	0.782	0.83	0.00137	1.07
HCI-024, days in culture: 254	1.94	1.16	1.05	1.38	1.28	0.958	0.00459	0.909

HCI-017.E2
Conditions	CTG-3D luminescence at 96 h
12.5 pM	2.22
0.00025 µM	2.39
0.005 µM	2.07
0.1 µM	2.2
1 µM	1.83
10 µM	1.95
100 µM	0.0156
625 fM	2.35

Reference: the supplement of paper PMC8882468
